Measured values taken from PubChem BioAssay AID1332 (Southern Research Institute, 2008).
≈ marks a conversion by molar mass, not a printed value.

Each molecule was assayed on M. tuberculosis H37Rv growth inhibition (assay: Confirmatory growth inhibition assay, mycobacterium tuberculosis h37rv, with cytotoxicity (AID 1332);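 also: bacteria incubated 7 days before adding Alamar blue readout reagent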).

Structure (SMILES) | IC90 [µg/mL]
Clc1ccccc1C(c1ccccc1)(c1ccccc1)n1ccnc1 | 5.36 (≈ 15.6 µM)
CNCCC=C1c2ccccc2C=Cc2ccccc21 | 17.1 (≈ 65.3 µM)
CCCCC(CC)CN=C(N)NC(N)=NCCCCCCN=C(N)NC(N)=NCC(CC)CCCC (configuration not stated) | 0.729 (≈ 1.43 µM)
CN(C)/N=N/c1nc[nH]c1C(N)=O | 0.639 (≈ 3.51 µM)
CNCCCC12CCC(c3ccccc31)c1ccccc12 | 17.9 (≈ 64.5 µM)
C=CCOC(Cn1ccnc1)c1ccc(Cl)cc1Cl (configuration not stated) | 2 (≈ 6.73 µM)
Nc1nc(=S)c2ncn([C@@H]3O[C@H](CO)[C@@H](O)[C@H]3O)c2[nH]1 | 11.9 (≈ 39.7 µM)
C1CCC(C(CC2CCCCN2)C2CCCCC2)CC1 (configuration not stated) | 1.99 (≈ 7.16 µM)
CN(C)[C@@H]1C(=O)C(C(N)=O)=C(O)[C@@]2(O)C(=O)C3=C(O)c4c(O)cccc4[C@@](C)(O)[C@H]3C[C@@H]12 | 6.54 (≈ 14.7 µM)
CCn1cc(C(=O)O)c(=O)c2cc(F)c(N3CCNCC3)cc21 | 0.81 (≈ 2.54 µM)
Clc1ccc(COC(Cn2ccnc2)c2ccc(Cl)cc2Cl)cc1 (configuration not stated) | 1.98 (≈ 5.18 µM)
CN(C(=O)CN(CCO)CC(=O)N(C)C(C)(C)Cc1ccccc1)C(C)(C)Cc1ccccc1 | 15.6 (≈ 33.4 µM)
O=c1[nH]c2ccccc2n1C1CCN(CCCC(c2ccc(F)cc2)c2ccc(F)cc2)CC1 | 2.34 (≈ 5.06 µM)
NNC(=O)c1ccncc1 | 10.4 (≈ 75.5 µM)
CN(CCCCCCCCCCN(C)C(=O)Oc1cccc([N+](C)(C)C)c1)C(=O)Oc1cccc([N+](C)(C)C)c1 | 2.19
CO[C@H]1/C=C/O[C@@]2(C)Oc3c(C)c(O)c4c(O)c(c(/C=N/N5CCN(C)CC5)c(O)c4c3C2=O)NC(=O)/C(C)=C\C=C\[C@H](C)[C@H](O)[C@@H](C)[C@@H](O)[C@@H](C)[C@H](OC(C)=O)[C@@H]1C | 0.04 (≈ 0.0486 µM)
CCN(CC)CCNc1ccc(CO)c2sc3ccccc3c(=O)c12 | 19.4 (≈ 54.5 µM)
CC1=CC(=O)c2ccccc2C1=O | 5.38 (≈ 31.2 µM)
C=C1C(=O)O[C@@H]2[C@H]3O[C@]3(C)CC/C=C(\C)CC[C@@H]12 | 1.43 (≈ 5.76 µM)
COc1ccc(C[C@H](N)C(=O)N[C@H]2[C@@H](O)[C@H](n3cnc4c(N(C)C)ncnc43)O[C@@H]2CO)cc1 | 1.75 (≈ 3.71 µM)
Cc1c2ccncc2c(C)c2c1[nH]c1ccccc12 | 0.17 (≈ 0.69 µM)
C[n+]1cc2c3c(ccc2c2ccc4cc5c(cc4c21)OCO5)OCO3 | 7.62
Clc1ccc(C(Cn2ccnc2)OCc2csc3c(Cl)cccc23)c(Cl)c1 (configuration not stated) | 3.41 (≈ 7.8 µM)
N[C@@H](C(=O)N[C@@H]1C(=O)N2C(C(=O)O)=C(Cl)CS[C@H]12)c1ccccc1 | 11.3 (≈ 30.6 µM)

Structure (SMILES) | IC90 [µg/mL]
Nc1ccc(S(=O)(=O)Nc2ccnn2-c2ccccc2)cc1 | 12.8 (≈ 40.7 µM)
CSc1ccc2c(c1)N(CCC1CCCCN1C)c1ccccc1S2 (configuration not stated) | 3.01 (≈ 8.13 µM)
CSc1ccc2c(c1)C(N1CCN(C)CC1)Cc1ccccc1S2 (configuration not stated) | 4.56 (≈ 12.8 µM)
Clc1ccc(C(Cn2ccnc2)OCc2c(Cl)cccc2Cl)c(Cl)c1 (configuration not stated) | 2.51 (≈ 6.04 µM)
CN1CCCC(CC2c3ccccc3Sc3ccccc32)C1 (configuration not stated) | 10.4 (≈ 33.7 µM)
CNc1ncnc2c1ncn2[C@@H]1O[C@H](CO)[C@@H](O)[C@H]1O | 0.822 (≈ 2.92 µM)
CO[C@@H]1[C@@H](OC(N)=O)[C@@H](O)C(Oc2ccc3c(O)c(NC(=O)c4ccc(O)c(CC=C(C)C)c4)c(=O)oc3c2C)OC1(C)C (some centres not stated) | 4.96 (≈ 8.1 µM)
CN1CCN(CCCN2c3ccccc3Sc3ccc(Cl)cc32)CC1 | 8.01 (≈ 21.4 µM)
CN(C)c1ccc(O)c2c1CC1CC3[C@@H](N(C)C)C(=O)C(C(N)=O)=C(O)[C@]3(O)C(=O)C1=C2O (some centres not stated) | 2.04 (≈ 4.46 µM)
Cc1cccc(CN2CCN(C(c3ccccc3)c3ccc(Cl)cc3)CC2)c1 (configuration not stated) | 7.72 (≈ 19.7 µM)
CCC(C)N1CCC2(CC1)N=c1c(c3c4c5c(C)c(O)c3c(O)c1=NC(=O)/C(C)=C/C=C/[C@H](C)[C@H](O)[C@@H](C)[C@@H](O)[C@@H](C)[C@H](OC(C)=O)[C@H](C)[C@@H](OC)/C=C/O[C@@](C)(O5)C4=O)N2 (some centres not stated) | 0.04 (≈ 0.0472 µM)
CCn1cc(C(=O)O)c(=O)c2cc(F)c(N3CCNC(C)C3)c(F)c21 (configuration not stated) | 0.258 (≈ 0.734 µM)
CCCCCCCCNC(C)C(O)c1ccc(SC(C)C)cc1 (configuration not stated) | 2.25 (≈ 6.67 µM)
C=C(NC(=O)C(=C)NC(=O)c1csc(C2=N[C@H]3c4csc(n4)[C@H]4NC(=O)c5csc(n5)[C@H]([C@@](C)(O)[C@@H](C)O)NC(=O)[C@H]5CSC(=N5)/C(=C\C)NC(=O)[C@H]([C@@H](C)O)NC(=O)c5csc(n5)[C@]3(CC2)NC(=O)[C@H](C)NC(=O)C(=C)NC(=O)[C@H](C)NC(=O)[C@H](C(C)CC)N[C@@H]2C=Cc3c([C@H](C)O)cc(nc3[C@H]2O)C(=O)O[C@@H]4C)n1)C(N)=O (some centres not stated) | 0.357 (≈ 0.214 µM)
CC(NCCC(c1ccccc1)c1ccccc1)c1ccccc1 (configuration not stated) | 8.02 (≈ 25.4 µM)
Cc1cc(C(C)(C)CC(C)(C)C)ccc1OCCOCC[N+](C)(C)Cc1ccccc1 | 4.91
N[C@H]1CONC1=O | 2.27 (≈ 22.3 µM)
CN(C)CCCN1c2ccccc2Sc2ccc(Cl)cc21 | 7.45 (≈ 23.4 µM)
Clc1ccc(CCC(Cn2ccnc2)Sc2c(Cl)cccc2Cl)cc1 (configuration not stated) | 1.61 (≈ 3.9 µM)
CC(=O)N1CCN(c2ccc(OC[C@H]3CO[C@](Cn4ccnc4)(c4ccc(Cl)cc4Cl)O3)cc2)CC1 | 2.49 (≈ 4.69 µM)
CC[C@@]1([C@@H]2O[C@@H]([C@H]3O[C@@](O)(CO)[C@H](C)C[C@@H]3C)C[C@@H]2C)CC[C@H]([C@]2(C)CC[C@]3(C[C@H](O)[C@@H](C)[C@@H]([C@@H](C)[C@@H](OC)[C@H](C)C(=O)O)O3)O2)O1 | 4.12 (≈ 6.15 µM)
CN[C@@H]1C(O[C@H]2O[C@H](CO)[C@@H](N)[C@H](O)[C@H]2O)O[C@H]2C[C@@H](N)[C@@H](O[C@H]3[C@H](O)[C@@H](O)[C@H](N)C[C@@H]3N)OC2[C@@H]1O (some centres not stated) | 3.57 (≈ 6.61 µM)
CC[C@H]1OC(=O)[C@H](C)[C@@H](OC2C[C@@](C)(OC)[C@@H](O)[C@H](C)O2)[C@H](C)[C@@H](O[C@@H]2O[C@H](C)C[C@H](N(C)C)[C@H]2O)[C@](C)(O)C[C@@H](C)/C(=N\OCOCCOC)[C@H](C)[C@@H](O)[C@]1(C)O (some centres not stated) | 11.5 (≈ 13.7 µM)
